The values below are quoted from earlier work in patent US20240226035A1, “Precision Medicine Approach to Treating Parkinson's Disease with a Monoamine Oxidase Inhibitor, an Antioxidant, or Both” (UNIVERSITY OF NORTH TEXAS HEALTH SCIENCE CENTER AT FORT …, priority 2021, published 2024).

For the series the following is noted: DATATOP trial.
[1] abbreviates: deprenyl 10 mg/day, PD patients.

Regarding `C#CCN(C)[C@H](C)Cc1ccccc1` [deprenyl], the “effect on reducing PD symptoms” value (deprenyl 10 mg/d, after 14 months, trial discontinued and became open-label) was “positive effects”. Under setting [1], the “postponing levodopa-related adverse events or extending life” value is recorded as “no benefit” and the “time until disability that warranted initiation of levodopa therapy” value is listed as “delayed time until disability that warranted initiation of levodopa therapy”.
